Source: patent US7008636B2, “2,3,5-substituted biphenyls useful in the treatment of insulin resistance and hyperglycemia” (Wyeth, priority 1998, dated 2006)
pIC50: −log10 of the molar value.

Assays:
[1] = target: T1, recombinant, human protein tyrosine phosphatase (PTP) 1B (hPTP1B) (Homo sapiens, UniProt P18031); assay: Inhibition of tri-phosphorylated insulin receptor dodecaphosphopeptide dephosphorylation by hPTP1B; type: biochemical; details: 50 μM IR triphosphopeptide substrate, 5 min preincubation and 5 min reaction at 37° C., malachite green-ammonium molybdate phosphate detection
T1 construct: made in house
T1 sequence (P18031 1-435): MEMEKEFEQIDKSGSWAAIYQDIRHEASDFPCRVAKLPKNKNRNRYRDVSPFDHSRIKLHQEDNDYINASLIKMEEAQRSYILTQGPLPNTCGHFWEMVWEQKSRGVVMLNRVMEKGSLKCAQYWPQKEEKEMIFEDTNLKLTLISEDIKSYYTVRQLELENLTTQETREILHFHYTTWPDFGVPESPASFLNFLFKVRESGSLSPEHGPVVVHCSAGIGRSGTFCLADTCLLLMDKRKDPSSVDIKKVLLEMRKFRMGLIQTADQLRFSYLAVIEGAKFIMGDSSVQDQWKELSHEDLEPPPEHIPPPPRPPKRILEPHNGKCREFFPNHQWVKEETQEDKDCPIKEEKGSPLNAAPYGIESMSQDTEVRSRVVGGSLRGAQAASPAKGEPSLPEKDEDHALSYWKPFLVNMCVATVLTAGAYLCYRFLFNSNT

Row | melting point [°C] | pIC50 [1] | SMILES
1 | 87 to 89 | 6.04 | CCCCCCc1cc(-c2ccccc2)c(OCC(=O)O)c(-c2ccccc2)c1 [Example 169, (5′-Hexyl-[1,1′;3′,1″]terphenyl-2′-yloxy)acetic acid]
2 | 63 to 65 | 6.75 | CCCCCCCCCc1cc(-c2ccccc2)c(OCC(=O)O)c(-c2ccccc2)c1 [Example 170, (5′-Nonyl-[1,1′;3′,1″]terphenyl-2′-yloxy)acetic acid]
3 | 89 to 90 | 7.55 | CCCCCCCCCCCCCCOc1cc(-c2ccccc2)c(OCC(=O)O)c(-c2ccccc2)c1 [Example 173, (5′-Tetradecyloxy-[1,1′;3′,1″]terphenyl-2′-yloxy)acetic acid]
4 | 211 to 214 | 6.20 | O=C(O)COc1c(-c2ccccc2)cc(C(c2ccccc2)(c2ccccc2)c2ccccc2)cc1-c1ccccc1 [Example 174, (5′-Trityl-[1,1′;3′,1″]terphenyl-2′-yloxy)acetic acid]
5 | 154.3 to 158.2 | 7.30 | CCCCCCCCCCCCNC(=O)c1cc(-c2cccc(C(F)(F)F)c2)c(OCC(=O)O)c(-c2cccc(C(F)(F)F)c2)c1 [Example 175, (5′-Dodecylcarbamoyl-3,3″-bis-trifluoromethyl-{1,1′;3′,1″]terphenyl-2′-yloxy)-acetic acid]
6 | 166.5 to 168.8 | 6.47 | O=C(O)COc1c(-c2cccc(C(F)(F)F)c2)cc(C(=O)NCCCCCCc2ccccc2)cc1-c1cccc(C(F)(F)F)c1 [Example 189, [5′-(6-Phenyl-hexylcarbamoyl)-3,3″-bis-trifluoromethyl-[1,1′:3′,1″}terphenyl-2′-yloxy]-acetic acid]
7 | 145.4 to 150.8 | 6.66 | O=C(NCCCCCCCCc1ccccc1)c1cc(-c2cccc(C(F)(F)F)c2)c(OCCCCc2nnn[nH]2)c(-c2cccc(C(F)(F)F)c2)c1 [Example 198]
